Experimental data taken from patent publication US20220324770A1, “NITRIFICATION INHIBITORS” (The University of Melbourne, priority 2019, published 2022).

Tests used:
South Johnstone soil = assay: Soil microcosm incubation (nitrification of applied ammonium), South Johnstone soil; settings: for Nitrified NH4+—N (%) Day 3 / Nitrified NH4+—N (%) Day 7 / Nitrified NH4+—N (%) Day 14 / Nitrified NH4+—N (%) Day 21 / Nitrified NH4+—N (%) Day 28: 10 mol %; for effectiveness compared to treatment with DMPP (higher NH4+—N, lower NOx−—N) / retaining NH4+—N vs DMPP / retaining NH4+—N and slowing NOx−—N growth vs fertilised control: South Johnstone soil; for effectiveness compared to treatment with DMPP (higher NH4+—N, lower NOx−—N): 25° C.; for Nitrified NH4+—N (%) Day 28 / effectiveness compared to treatment with DMPP (higher NH4+—N, lower NOx−—N) / retaining NH4+—N and slowing NOx−—N growth vs fertilised control: day 28; for retaining NH4+—N vs DMPP / retaining NH4+—N and slowing NOx−—N growth vs fertilised control: 35° C.
Experimental: (§1) The soil used in this study was collected from four different locations in Victoria, Australia: (i) a wheat cropping soil from Horsham (36° 45′S, 142° 07′ E), (ii) a rotational cropping soil from Dahlen (36° 37′S, 142° 09′ E), (iii) a vegetable growing soil from Clyde (38° 08′S, 145° 20′ E), and (iv) a pasture soil from Terang (38° 15′S, 142° 52′E). In addition, a sugarcane cropping soil from South Johnstone in northern Queensland (17° 34′S, 145° 57′ E) was also studied. The water content of the soil was calculated before commencing each experiment, from samples that were oven-dried to constant weight. The soil's water-filled pore space (WFPS) was in the range 52%-61%, which is within the recommended 50-70% range for microbial activity due to oxygen and nutrient availability (Fichtner, T., et al., Applied Sciences, 2019, 9, 496).
(§2) Soil microcosm incubations were carried out in 250 ml polypropylene specimen containers (Sarstedt, Germany), containing 18.24 g oven dry-weight equivalent of soil. Microcosms were re-wetted and pre-incubated at the test temperature for seven days to revive soil microbial activity. Following pre-incubation, the remaining volume to reach the desired water-filled pore spaces (WFPS %) was applied as one of the following treatment solutions; (NH4)2SO4(Control), (NH4)2SO4+DMPP, or (NH4)2SO4+one of Compounds 1-23. Each treatment was applied in triplicate per soil type, so that n=3 at each time point.
(§3) Treatment solutions were prepared such that each microcosm received (NH4)2SO4 at a rate of 100 mg N per kg soil, Compounds 1-23 at 10 mol % of applied N, or DMPP at one of 1.5, 3.6 or 10 mol % of applied N, referred to as L-DMPP, M-DMPP or H-DMPP respectively.
(§4) The microcosms were incubated for 0, 3, 7, 14, 21 or 28 days, where day 0 samples were extracted following 1-hour incubation post-treatment. Soil microcosms were aerated and moisture levels were replenished based on weight loss every few days throughout the incubation period.
(§5) At the end of each incubation period, soil microcosms were destructively sampled by treatment with 2M KCl (100 mL). After shaking for 1 hour, soil-KCl solutions were filtered (Whatman 42) before storing the filtrates at −20° C. until the conclusion of the experiment. All KCl extracts were then analysed by Segmented Flow Analysis (San++, Skalar, Breda, The Netherlands) for the concentration of nitrogen from ammonium (NH4^+—N) and nitrogen from NO3 and NO2 (NOx^−—N) after appropriate dilutions. Results are reported as the mean of three replicates, errors reported are standard errors of the mean.
(§6) Nitrification calculations were performed as previously reported (Aulakh, M., et al., Biology and Fertility of Soils 2001, 33, 258-263; Mahmood, T., et al., Soil Research 2017, 55, 715-722) without correction for the initial baseline concentrations of NH4^+—N or NO3^− N in the untreated soil. For each treatment nitrified NH4^+—N (%) was calculated according to eqn. 1:
(§7) where [NH4^+—N]0 is the NH4^+—N concentration (in mg N kg^−1 soil) of the soil on day 0 and [NH4^+—N]t is the NH4^+—N concentration (in mg N kg^−1 soil) of the soil at a given time point t.

Terang soil = assay: Soil microcosm incubation (nitrification of applied ammonium), Terang soil; settings: for Nitrified NH4+—N (%) Day 3 / Nitrified NH4+—N (%) Day 7 / Nitrified NH4+—N (%) Day 14 / Nitrified NH4+—N (%) Day 28: Terang soil pH 6.5, 25° C., L-DMPP 1.5 mol %; for Nitrified NH4+—N (%) Day 3: compounds 10 mol % of applied N, (NH4)2SO4 100 mg N per kg soil; for Nitrified NH4+—N (%) Day 7 / Nitrified NH4+—N (%) Day 14 / Nitrified NH4+—N (%) Day 28: compounds 10 mol %
Experimental: as §1, §2, §3, §4, §5, §6, §7

Dahlen soil = assay: Soil microcosm incubation (nitrification of applied ammonium), Dahlen soil; settings: for Nitrified NH4+—N (%) Day 3 / Nitrified NH4+—N (%) Day 7 / Nitrified NH4+—N (%) Day 14 / Nitrified NH4+—N (%) Day 21 / Nitrified NH4+—N (%) Day 28: 10 mol %
Experimental: as §1, §2, §3, §4, §5, §6, §7
NOx^−—N accumulation rates (mg NOx^−—N/kg soil/day) over the 28-day incubation experiments were calculated for each treatment as in the following (eqn. 2):
[NOx^−—N]t=0 and [NOx^−—N]t=28 are the combined concentrations of nitrite (NO2) and nitrate (NO3) in the soil (in mg N kg^−1 soil) on day 0 and day 28, respectively.

[1] = South Johnstone soil pH 5.0, 25° C., negative = NH4+—N higher than day 0 (mineralisation)
[2] = South Johnstone soil pH 5.0, 25° C.
[3] = South Johnstone soil pH 5.0, 35° C.
[4] = Table 5, Dahlen soil pH 7.3, 25° C.
[5] = Table 5, Dahlen soil pH 7.3, 35° C.

Row | Compound | Nitrified NH4+—N (%) Day 3 (South Johnstone soil; [1]) [%] | Nitrified NH4+—N (%) Day 7 (South Johnstone soil; [2]) [%] | Nitrified NH4+—N (%) Day 14 (South Johnstone soil; [2]) [%] | Nitrified NH4+—N (%) Day 21 (South Johnstone soil; [2]) [%] | Nitrified NH4+—N (%) Day 28 (South Johnstone soil; [2]) [%] | Nitrified NH4+—N (%) Day 3 (South Johnstone soil; [3]) [%] | Nitrified NH4+—N (%) Day 7 (South Johnstone soil; [3]) [%] | Nitrified NH4+—N (%) Day 14 (South Johnstone soil; [3]) [%] | Nitrified NH4+—N (%) Day 21 (South Johnstone soil; [3]) [%] | Nitrified NH4+—N (%) Day 28 (South Johnstone soil; [3]) [%] | effectiveness compared to treatment with DMPP (higher NH4+—N, lower NOx−—N) (South Johnstone soil) | retaining NH4+—N vs DMPP (South Johnstone soil) | retaining NH4+—N and slowing NOx−—N growth vs fertilised control (South Johnstone soil) | Nitrified NH4+—N (%) Day 3 (Terang soil) [%] | Nitrified NH4+—N (%) Day 7 (Terang soil) [%] | Nitrified NH4+—N (%) Day 14 (Terang soil) [%] | Nitrified NH4+—N (%) Day 28 (Terang soil) [%] | further results
1 | CCCCc1cn(CC(=O)OCC)nn1 [Compound 3, 4-Butyl-1H-1,2,3-Triazole-1-Acetic Acid Ethyl Ester] | −6.3 ± 0.7 | −7.9 ± 0.9 | −12.7 ± 0.7 | −13.9 ± 0.9 | −12.8 ± 0.8 | −11.8 ± 1.5 | −26.2 ± 1.5 | −34.8 ± 0.6 | −28.3 ± 1.4 | −18.6 ± 2.3 | statistically higher effectiveness | performed statistically better than DMPP | performed statistically better than the fertilised control | 15.6 ± 3.0 | 29.4 ± 2.6 | 47.8 ± 3.5 | 99.9 ± 2.8 | retaining NH4+—N in the soil compared with the fertilised control (Terang soil; Terang soil, 25° C.): most effective treatments
2 | CCCCn1cc(C(C)(C)O)nn1 [Compound 4, 1-butyl-4-(α,α-dimethylmethanol)-1H-1,2,3-triazole] |  |  |  |  |  |  |  |  |  |  |  |  |  | 27.0 ± 7.5 | 67.3 ± 5.2 | 96.4 ± 5.8 | 100 ± 5.9 | 
3 | C=CCn1cc(CCC)nn1 [Compound 18, 1-(2-propen-1-yl)-4-propyl-1H-1,2,3-triazole] | −6.2 ± 0.9 | −8.5 ± 1.0 | −11.0 ± 1.0 | −12.1 ± 1.4 | −14.9 ± 1.4 | −11.7 ± 2.0 | −28.7 ± 1.5 | −35.8 ± 1.3 | −31.7 ± 1.1 | −16.9 ± 1.8 | statistically higher effectiveness | performed statistically better than DMPP | performed statistically better than the fertilised control |  |  |  |  | retaining NH4+—N levels by day 28 vs fertilised control (and DMPP) (Dahlen soil; Dahlen soil, 25° C., Table 5 test): performed statistically better; retaining NH4+—N vs (NH4)2SO4-treated control by day 28 (Dahlen soil; Dahlen soil, 35° C., Table 5 test): remain highly effective; Nitrified NH4+—N (%) Day 3 (Dahlen soil; Table 5 (further comparative test), Dahlen soil pH 7.3, 25° C.): 5.1 ± 5.3%; Nitrified NH4+—N (%) Day 7 (Dahlen soil; [4]): 4.4 ± 1.1%; Nitrified NH4+—N (%) Day 14 (Dahlen soil; [4]): 29.4 ± 2.4%; Nitrified NH4+—N (%) Day 21 (Dahlen soil; [4]): 32.1 ± 2.3%; Nitrified NH4+—N (%) Day 28 (Dahlen soil; [4]): 40.5 ± 1.5%; Nitrified NH4+—N (%) Day 3 (Dahlen soil; [5]): 9.0 ± 4.3%; Nitrified NH4+—N (%) Day 7 (Dahlen soil; [5]): 4.5 ± 4.3%; Nitrified NH4+—N (%) Day 14 (Dahlen soil; [5]): 26.7 ± 3.9%; Nitrified NH4+—N (%) Day 21 (Dahlen soil; [5]): 19.8 ± 5.0%; Nitrified NH4+—N (%) Day 28 (Dahlen soil; [5]): 43.0 ± 4.7%
